According to patent US12605397B2, “Deoxy-cytidine or uridine derivatives for use in cancer therapies” (HEMISPHERIAN AS, priority 2019, dated 2026):

What was measured:
HCT-116 cells = assay: Survival assay (MTT), HCT-116; format: cell-based, human; conditions: Homo sapiens
Experimental: (§1) Cells were incubated with the drugs for 72 hours.

G30 cells = assay: Survival assay (MTT), G30; format: cell-based, human; conditions: Homo sapiens, G30, Glioma, Grade IV, 72 hours
Experimental: (§2) Cells were passed between 70 and 90% confluence.
as §1

G144 cells = assay: Survival assay (MTT), G144; format: cell-based, human; conditions: Homo sapiens, G144, Glioma, Grade IV, 72 hours
Experimental: (§3) Primary glioma neural stem (GNS) cells (G7, G14, G144, G166) were cultured on poly-D-lysine (Merck Millipore, Cat. Nr. A-003-E) and laminin (R&D Systems, Cat.Nr. 3446-005-01) coated plates in neural stem cell medium (50% DMEM-F12 (Thermofisher, Cat. Nr. 21041025), 50% neurobasal medium (Thermofisher, Cat. Nr. 10888-022), N2 (Life Technologies, Cat. Nr. A-003-E) and B27 supplements (Life Technologies, Cat.Nr. 12587010), 1 mM sodium pyruvate (Life Technologies, Cat.Nr. 11360-039), 2 mM glutamax (Life Technologies, Cat. Nr. 35050038), 1 mM HEPES (Fisher Scientific, Cat. Nr. BP299-1), 0.1 mM β-mercaptoethanol (Life Technologies, Cat. Nr. 31350010), 1× nonessential amino acids (Life Technologies, Cat. Nr. 11140-035), 0.006% bovine serum albumin (Sigma, Cat. Nr. A8577-10ML), 4 μg/ml heparin (Sigma, Cat. Nr. H3149-25KU), 100 U/ml penicillin, 100 μg/ml streptomycin, 20 ng/ml hEGF (R&D Systems, Cat. Nr. 236-EG-200), 10 ng/ml bFGF (Peprotech, Cat. Nr. 100-18B).
as §1

U87-MG = assay: Glioblastoma Multiforme mouse xenograft model; format: in vivo, mice; conditions: five doses; for tumour volume: over all time points
Experimental: Standard agent, Temozolomide, was provided by Oslo University Hospital in powder form and was formulated fresh prior to each dose by first adding appropriate volume of DMSO to pre-weighed compound, then adding appropriate volumes of Solutol (RTM) and PBS (5% DMSO/5% Solutol (RTM)/90% PBS). […] Standard agent, Temozolomide, was administered at a dose volume of 10 mL/kg.
The human brain malignant glioma cell line, U87-MG (ATCC HTB-14, epithelial glioblastoma), was obtained from American Type Culture Collection (ATCC). The cells were cultured in Minimum essential medium containing 5% fetal bovine serum (FBS) at 37° C., with 5% CO2 in an incubator.
Female (nu/nu) nude mice aged 6-7 weeks obtained from BioLasco Taiwan (under Charles River Laboratories Licensee) were used. The animals were housed in individually ventilated cages (IVC, 36 Mini Isolator system). The allocation for 5 animals was 27×20×14 in cm. All animals were maintained in a hygienic environment under controlled temperature (20-24° C.) and humidity (30%-70%) with 12-hour light/dark cycle.
Viable U87-MG (ATCC HTB-14) cells were subcutaneously (SC) implanted (5×10^6 cells/mouse in PBS at 0.2 mL/mouse) into the right flank of female nu/nu mice. When group mean tumor volumes reached approximately 129 mm^3 to 131 mm^3, tumor implanted mice were divided into four treatment groups, each group containing eight animals, and dose administrations were initiated (denoted as Day 1).
5-hydroxymethyl-2′-deoxycytidine, 5-formyl-2′-deoxycytidine at 2000 mg/kg and corresponding vehicle (5% DMSO/5% Solutol (RTM)/90% PBS) were administered intraperitoneally (IP) once every three days for a total of five administrations. Temozolomide at 40 mg/kg was administered orally (PO) once daily for five total administrations.
The tumor volume, body weight, mortality, and signs of overt toxicity were monitored and recorded twice weekly for 29 days. Tumor volume (mm^3) was estimated according to the ellipsoid formula as: length×(width)^2×0.5. Tumor growth inhibition (T/C) was calculated by the following formula:
[formula] • Cn: Tumor weight measured on Day n in the control group • Tn: Tumor weight measured on Day n in the treated group • % T/C value≤42% was considered significant antitumor activity (#). Percent tumor growth inhibition (TGI) was also calculated by the following formula:
[formula] • % TGI value≥58% was considered significant antitumor activity (#).
Two-way ANOVA (RTM) followed by Bonferroni test was also used to ascertain the statistically significant difference compared to the negative control group during study; Day 1 through to Day 29. Differences are considered significant at p<0.05 (*).
5-formyl-2′deoxycytidine and 5-hydroxymethyl-2′-deoxycytidine were evaluated in a Glioblastoma Multiforme mouse xenograft model as described above (Materials and Methods). U87-MG cells were injected subcutaneously into the flank of nude mice. Tumours were allowed to form as described above (Materials and Methods). After the tumours reached between 129 mm^3 and 131 mm^3 animals were divided into 4 groups—two treatment groups, a negative control group and a positive control group. The two treatment groups were 5-formyl-2′-deoxycytidine and 5-hydroxymethyl-2′-deoxycytidine. […]
The tumour volume (FIG. 1C), body weight (FIG. 1D), mortality, and signs of overt toxicity were monitored and recorded twice weekly for 29 days. […]

[1] = test system: Glioma, Grade IV cell lines; assay: Survival assay, panel of 12 patient derived Glioma, Grade IV cell lines; format: cell-based, human; conditions: of 12 cell lines of Table 2
Experimental: as §3, §2, §1
Due to lack of activity in previous assays, 5-carboxyl-2′-deoxycytidine was not included in this more rigorous analysis.

MIA PaCa-2 cells = assay: Survival assay (MTT), MIA PaCa-2; format: cell-based, human; conditions: Homo sapiens, MIA PaCa-2
Experimental: as §2, §1

G14 cells = assay: Survival assay (MTT), G14; format: cell-based, human; conditions: Homo sapiens, G14, Glioma, Grade IV, 72 hours
Experimental: as §3, §1

HEK293FT cells = assay: Survival assay (MTT), HEK293FT; format: cell-based; conditions: Homo sapiens
Experimental: as §2, §1
The present inventors further investigated the extent to which these compounds kill normal human cells; low cytotoxicity against normal human cells is advantageous property for anti-cancer agents. The cytotoxicity of these compounds in various normal human cell lines was therefore investigated (Table 3). Cells were grown and the survival assay was performed as described above (Materials and Methods).

[2] = HCT-116, 72 h, HCT-116, Colon Carcinoma, 72 hours, MTT
[3] = MIA PaCa-, Pancreatic Carcinoma, 72 hours, MTT
[4] = HCT-116, HCT-116, Tables 6 and 7, unit inferred
[5] = 2000 mg/kg IP every three days, end of study (Day 29)
[6] = HEK293, Tables 6 and 7, unit inferred

Structure (SMILES) | IC50 (HCT-116 cells; [2]) [µM] | IC50 (G30 cells) [µM] | IC50 (G144 cells) [µM] | tumour growth inhibition (TGI) (U87-MG; positive control, 40 mg/kg PO once daily, end of study) [%] | number of Glioma, Grade IV cell lines killed [1] | IC50 (MIA PaCa-2 cells; [3]) [µM] | IC50 (G14 cells) [µM] | IC50 (HEK293FT cells; 72 h, Normal, Kidney, MTT) [µM] | IC50 (HCT-116 cells; [4]) [µM] | tumour growth inhibition (TGI) (U87-MG; [5]) [%] | tumour volume (U87-MG; 2000 mg/kg IP every three days) | IC50 (MIA PaCa-2 cells; Tables 6 and 7, unit inferred) [µM] | IC50 (HEK293FT cells; [6]) [µM]
Cn1nnc2c(C(N)=O)ncn2c1=O [Temozolomide, 4-methyl-5-oxo-2,3,4,6,8-pentazabicyclo[4.3.0]nona-2,7,9-triene-9-carboxamide, reference compound] | > 25 | 21.6 | 14.7 | 94 | 5 of 12 | > 25 | 6.02 | > 25 | – | – | – | – | –
Nc1nc(=O)n([C@H]2C[C@H](O)[C@@H](CO)O2)cc1C=O [2d5fC, 5-formyl-2′-deoxycytidine] | > 25 | 18 | > 100 | – | 5 of 12 | 1.14 | > 100 | > 25 | ≥ 25 | 83 | marked decrease in tumour volume | 1.14 | ≥ 25
Nc1nc(=O)n([C@H]2C[C@H](O)[C@@H](CO)O2)cc1CO [2d5hmC, 5-hydroxymethyl-2′-deoxycytidine] | > 25 | 28.1 | > 100 | – | 6 of 12 | > 25 | 25.4 | > 25 | ≥ 25 | 93 | marked decrease in tumour volume | ≥ 25 | ≥ 25
